{"source": "ChEMBL document CHEMBL1201862", "about": "“PubChem BioAssay data set” (2004)", "assay_in_all_cases": "NCI anticancer screen, dose series, 48 h", "key": {"[1]": {"system": "BT-549"}, "[2]": {"system": "DLD-1"}, "[3]": {"system": "DMS-273"}, "[4]": {"system": "M19-MEL"}, "[5]": {"system": "KM-20L2"}, "[6]": {"system": "SNB-78"}, "[7]": {"system": "XF498"}, "[8]": {"system": "RXF 631"}, "[9]": {"system": "HOP-18"}}, "note": "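Values below derive from 48-hour exposures of cells grown in 96-well plates, with endpoints linearly interpolated between the two concentrations bracketing the appropriate inhibition level. GI50: concentration for 50% inhibition of growth.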 Calls of active or inactive are those of the source. Rule as the data show it: active = GI50 up to about 1.1 µM and inactive = higher.", "data": [{"compound": "COc1ccc2c(CCNS(=O)(=O)c3ccccc3)c(C(C)=O)[nH]c2c1", "values": [{"measurement": "GI50", "setting": "[1]", "result": "33.8 µM (inactive)"}]}, {"compound": "C=CCN(CC=C)CC(C(C)=O)C(c1ccccc1)c1c(O)c2ccccc2oc1=O", "note": "(stereo unspecified)", "values": [{"measurement": "GI50", "setting": "[2]", "result": "> 100 µM (inactive)"}, {"measurement": "GI50", "setting": "[3]", "result": "> 100 µM (inactive)"}, {"measurement": "GI50", "setting": "[4]", "result": "> 100 µM (inactive)"}, {"measurement": "GI50", "setting": "[5]", "result": "82.8 µM (inactive)"}, {"measurement": "GI50", "setting": "[6]", "result": "> 100 µM (inactive)"}, {"measurement": "GI50", "setting": "[7]", "result": "> 100 µM (inactive)"}]}, {"compound": "CCc1cccc(=O)c([O-])c1.CCc1cccc(=O)c([O-])c1.[Bi+3].[Cl-]", "values": [{"measurement": "GI50", "setting": "[8]", "result": "4.13 µM (inactive)"}, {"measurement": "GI50", "setting": "[2]", "result": "2.91 µM (inactive)"}, {"measurement": "GI50", "setting": "[3]", "result": "7.53 µM (inactive)"}, {"measurement": "GI50", "setting": "[4]", "result": "6.98 µM (inactive)"}, {"measurement": "GI50", "setting": "[5]", "result": "10.5 µM (inactive)"}, {"measurement": "GI50", "setting": "[6]", "result": "7.19 µM (inactive)"}, {"measurement": "GI50", "setting": "[9]", "result": "16.2 µM (inactive)"}, {"measurement": "GI50", "setting": "[7]", "result": "2.38 µM (inactive)"}]}, {"compound": "N#CC1C=Cc2ccccc2N1C(=O)Oc1ccccc1", "note": "(stereo unspecified)", "values": [{"measurement": "GI50", "setting": "[1]", "result": "53.5 µM (inactive)"}]}, {"compound": "Brc1cc2c(cc1C1SCCS1)OCO2", "values": [{"measurement": "GI50", "setting": "[8]", "result": "> 100 µM (inactive)"}, {"measurement": "GI50", "setting": "[2]", "result": "> 100 µM (inactive)"}, {"measurement": "GI50", "setting": "[3]", "result": "> 100 µM (inactive)"}, {"measurement": "GI50", "setting": "[5]", "result": "> 100 µM (inactive)"}, {"measurement": "GI50", "setting": "[6]", "result": "> 100 µM (inactive)"}, {"measurement": "GI50", "setting": "[9]", "result": "> 100 µM (inactive)"}]}, {"compound": "CC1=CP(=O)(OC(C)C)CC(C)=C1Cl", "note": "(stereo unspecified)", "values": [{"measurement": "GI50", "setting": "[2]", "result": "> 100 µM (inactive)"}, {"measurement": "GI50", "setting": "[3]", "result": "98.4 µM (inactive)"}, {"measurement": "GI50", "setting": "[4]", "result": "> 100 µM (inactive)"}, {"measurement": "GI50", "setting": "[5]", "result": "> 100 µM (inactive)"}, {"measurement": "GI50", "setting": "[6]", "result": "> 100 µM (inactive)"}]}, {"compound": "COc1cc(/C=N\\O)nc(-c2ccccn2)c1", "values": [{"measurement": "GI50", "setting": "[1]", "result": "1.5 µM (inactive)"}]}, {"compound": "O=[N+]([O-])c1ccc(Cl)c(/C=N/C23CC4CC(CC(C4)C2)C3)c1", "values": [{"measurement": "GI50", "setting": "[1]", "result": "> 10 µM (inactive)"}]}, {"compound": "CCOC(=O)/C=C\\C(C#N)(C#N)/N=C/c1ccsc1", "values": [{"measurement": "GI50", "setting": "[1]", "result": "5.42 µM (inactive)"}]}, {"compound": "O=C(O)CN(CC(=O)O)Cc1ccn(-c2cccc(-n3ccc(CN(CC(=O)O)CC(=O)O)n3)n2)n1", "values": [{"measurement": "GI50", "setting": "[1]", "result": "> 100 µM (inactive)"}]}, {"compound": "CC(C)OP(=O)(OC(C)C)/C(C#N)=C/c1ccco1", "values": [{"measurement": "GI50", "setting": "[1]", "result": "> 100 µM (inactive)"}]}, {"compound": "COC(=O)c1c(O)ccc2c1c1c(n2Cc2cc(OC)cc(OC)c2)C(=O)c2ccccc2C1=O", "values": [{"measurement": "GI50", "setting": "[1]", "result": "6.71 µM (inactive)"}]}, {"compound": "Nn1c(=O)n(Cc2ccccc2)n(-c2ccccc2)c1=O", "values": [{"measurement": "GI50", "setting": "[2]", "result": "> 100 µM (inactive)"}, {"measurement": "GI50", "setting": "[3]", "result": "> 100 µM (inactive)"}, {"measurement": "GI50", "setting": "[6]", "result": "> 100 µM (inactive)"}, {"measurement": "GI50", "setting": "[7]", "result": "> 100 µM (inactive)"}]}, {"compound": "Nc1nc(N)c2c(n1)NC(c1ccccc1)CC(/C=C/c1ccc(Cl)cc1)=N2", "note": "(stereo unspecified)", "values": [{"measurement": "GI50", "setting": "[1]", "result": "17.5 µM (inactive)"}]}, {"compound": "CCOc1ccccc1NC(=O)CC1SC(Nc2ccc([N+](=O)[O-])cc2)=NC1=O", "note": "(stereo unspecified)", "values": [{"measurement": "GI50", "setting": "[2]", "result": "22.9 µM (inactive)"}, {"measurement": "GI50", "setting": "[4]", "result": "25.4 µM (inactive)"}, {"measurement": "GI50", "setting": "[5]", "result": "19.4 µM (inactive)"}, {"measurement": "GI50", "setting": "[6]", "result": "28.8 µM (inactive)"}, {"measurement": "GI50", "setting": "[9]", "result": "17.6 µM (inactive)"}, {"measurement": "GI50", "setting": "[7]", "result": "15.8 µM (inactive)"}]}, {"compound": "COC1=CC(=O)c2c(c(-c3nc(C)cs3)cn2C)C1=O", "values": [{"measurement": "GI50", "setting": "[1]", "result": "3.97 µM (inactive)"}]}, {"compound": "CC(=O)CC1(CBr)Nc2ccc([N+](=O)[O-])cc2NC1=O", "note": "(stereo unspecified)", "values": [{"measurement": "GI50", "setting": "[1]", "result": "58.1 µM (inactive)"}]}, {"compound": "CCOC(=O)C(=O)Nc1ccccc1C(C)C", "values": [{"measurement": "GI50", "setting": "[8]", "result": "> 100 µM (inactive)"}, {"measurement": "GI50", "setting": "[2]", "result": "> 100 µM (inactive)"}, {"measurement": "GI50", "setting": "[3]", "result": "> 100 µM (inactive)"}, {"measurement": "GI50", "setting": "[4]", "result": "> 100 µM (inactive)"}, {"measurement": "GI50", "setting": "[5]", "result": "> 100 µM (inactive)"}, {"measurement": "GI50", "setting": "[9]", "result": "> 100 µM (inactive)"}, {"measurement": "GI50", "setting": "[7]", "result": "> 100 µM (inactive)"}]}, {"compound": "CC(=O)Oc1cc(Cl)c(C)c2c1[C@H]1CC[C@]3(C)[C@@H](OC(C)=O)CC[C@H]3[C@@H]1CC2", "values": [{"measurement": "GI50", "setting": "[1]", "result": "> 100 µM (inactive)"}]}, {"compound": "COc1cc2cc(C(=O)N3CC(CCl)c4c3cc(NC(=O)C(C)(C)c3ccccc3[N+](=O)[O-])c3ccccc43)[nH]c2c(OC)c1OC", "note": "(stereo unspecified)", "values": [{"measurement": "GI50", "setting": "[1]", "result": "8.87 µM (inactive)"}]}, {"compound": "Cc1ccccc1NC(=O)/C(=N/NC(=O)CC#N)C1C(=O)N(c2ccccc2)N=C1N", "note": "(stereo unspecified)", "values": [{"measurement": "GI50", "setting": "[8]", "result": "> 100 µM (inactive)"}, {"measurement": "GI50", "setting": "[2]", "result": "79.6 µM (inactive)"}, {"measurement": "GI50", "setting": "[3]", "result": "> 100 µM (inactive)"}, {"measurement": "GI50", "setting": "[4]", "result": "> 100 µM (inactive)"}, {"measurement": "GI50", "setting": "[5]", "result": "> 100 µM (inactive)"}, {"measurement": "GI50", "setting": "[6]", "result": "> 100 µM (inactive)"}, {"measurement": "GI50", "setting": "[9]", "result": "> 100 µM (inactive)"}, {"measurement": "GI50", "setting": "[7]", "result": "> 100 µM (inactive)"}]}, {"compound": "Nc1ccc2nc3ccc(N)cc3[n+](-c3ccccc3)c2c1", "values": [{"measurement": "GI50", "setting": "[1]", "result": "92.7 µM (inactive)"}]}, {"compound": "O=C1CC(C(=O)N2CCCCC2)n2c(=O)n(-c3ccccc3)c(=O)n2C1", "note": "(stereo unspecified)", "values": [{"measurement": "GI50", "setting": "[1]", "result": "> 100 µM (inactive)"}]}, {"compound": "CCOC(=O)C1C[C@H]2CO[C@H](c3ccccc3)N2C1=O", "note": "(stereo partly specified)", "values": [{"measurement": "GI50", "setting": "[1]", "result": "> 100 µM (inactive)"}]}, {"compound": "O=C(Nn1c(-c2ccccc2)nc2ccccc2c1=O)c1ccc(O)cc1", "values": [{"measurement": "GI50", "setting": "[1]", "result": "> 100 µM (inactive)"}]}, {"compound": "CC[C@H]1C=CCC[C@@]2(C[C@@H]3CC[C@@H]4[C@H](C(=O)OCCCCCCCCCCCCCCCC(=O)O)[C@]5(CCC[C@@H](C)O5)NC(=[N+]34)N2)O1", "note": "[CRAMBESCIDIN 657]", "values": [{"measurement": "GI50", "setting": "[1]", "result": "0.314 µM (active)"}]}, {"compound": "COc1ccc(/C=C2\\C[C@H]3[C@@H]4CC=C5C[C@@H](OC(C)=O)CC[C@]5(C)[C@H]4CC[C@]3(C)C2=O)cc1OC", "values": [{"measurement": "GI50", "setting": "[1]", "result": "63.1 µM (inactive)"}]}, {"compound": "COC(=O)N1C=CC2=C(C)C3Nc4ccccc4C3C(C)=C2C1", "note": "(stereo unspecified)", "values": [{"measurement": "GI50", "setting": "[2]", "result": "1.74 µM (inactive)"}, {"measurement": "GI50", "setting": "[3]", "result": "0.301 µM (active)"}, {"measurement": "GI50", "setting": "[4]", "result": "2.78 µM (inactive)"}, {"measurement": "GI50", "setting": "[5]", "result": "0.697 µM (active)"}, {"measurement": "GI50", "setting": "[6]", "result": "0.546 µM (active)"}, {"measurement": "GI50", "setting": "[7]", "result": "2.48 µM (inactive)"}]}, {"compound": "O=C1OC(c2ccccc2)=N/C1=C\\c1ccc(F)cc1", "values": [{"measurement": "GI50", "setting": "[1]", "result": "75.3 µM (inactive)"}]}, {"compound": "CCOc1ccc(NC2=CC(=O)C(=O)c3ccccc32)cc1", "values": [{"measurement": "GI50", "setting": "[2]", "result": "4.43 µM (inactive)"}, {"measurement": "GI50", "setting": "[3]", "result": "2.88 µM (inactive)"}, {"measurement": "GI50", "setting": "[4]", "result": "0.647 µM (active)"}, {"measurement": "GI50", "setting": "[5]", "result": "18.7 µM (inactive)"}, {"measurement": "GI50", "setting": "[6]", "result": "15.5 µM (inactive)"}, {"measurement": "GI50", "setting": "[9]", "result": "2.6 µM (inactive)"}, {"measurement": "GI50", "setting": "[7]", "result": "2.25 µM (inactive)"}, {"measurement": "GI50", "setting": "[1]", "result": "1.66 µM (inactive)"}]}, {"compound": "N#CI1OC(C(F)(F)F)(C(F)(F)F)c2ccccc21", "values": [{"measurement": "GI50", "setting": "[1]", "result": "19.6 µM (inactive)"}]}, {"compound": "NCc1nnn(Cc2ccccc2)c1N", "values": [{"measurement": "GI50", "setting": "[1]", "result": "> 100 µM (inactive)"}]}]}
